{"source": "paper PMC8217813", "about": "“Bridging Computational Vaccinology and Vaccine Development Through Systematic Identification, Characterization, and Downselection of Conserved and Variable Circumsporozoite Protein CD4 T Cell Epitopes From Diverse Plasmodium falciparum Strains” (Frontiers in Immunology, 2021)", "key": {"[1]": {"system": "CD4 T cells co-cultured with autologous DCs from PBMCs", "type": "cell-based, human", "conditions": "positive = Stimulation Index ≥1.5-fold above baseline, 5 µg/mL peptide"}, "HLA-DRB1*0301": {"target": "HLA-DRB1*0301 (Homo sapiens, UniProt P01903+P01911, A100K/A102G/A103R/A169T/F55Y/I96L/K41T/L162R/M171V/P40S/Q125H/Q178H/Q39Y/R42S/S66N/T106N/T262R/W38E/Y61H)", "assay": "In vitro class II HLA binding competition assay", "conditions": "competition with fluorescent-labeled reference peptide, class II HLA monomers, 24-hours, test peptide 100,000 nM to 100 nM, time-resolved fluorescence", "description": "(§1) EpiVax conducted in vitro quantification of peptide-HLA binding affinity utilizing a competition assay format per the methodology described in ([35]). Briefly, a fluorescent-labeled, high-binding reference peptide and titrating concentrations of test peptide were incubated in a 96-well plate format with limiting concentrations of class II HLA monomers in aqueous buffer for 24-hours. Post incubation, the mixtures were moved to a 96-well plate coated with anti-HLA-DR antibody to capture HLA-peptide complexes. Time-resolved fluorescence measurement of the bound labeled reference peptide complex present in each mixture were detected with a europium-linked probe via fluorescent spectrophotometry using a SpectraMax M5 system. HLA binding affinity of each test peptide was expressed as the percent inhibition of reference peptide binding. Percent inhibition values (across the test peptide titration range) were used to calculate the half maximal inhibitory concentration (IC50) of each test peptide. For these studies, test peptides were assessed using a range of final concentrations from 100,000 nM to 100 nM and all peptides were reconstituted in dimethyl sulfoxide (DMSO)."}, "HLA-DRB1*1301": {"target": "HLA-DRB1*1301 (Homo sapiens, UniProt P01903+P01911, A100E/A169T/K41T/L162R/M171V/P40S/Q125H/Q178H/Q39Y/Q99D/R42S/S66N/T262R/W38E/Y61H)", "assay": "In vitro class II HLA binding competition assay", "conditions": "competition with fluorescent-labeled reference peptide, class II HLA monomers, 24-hours, test peptide 100,000 nM to 100 nM, time-resolved fluorescence", "description": "as §1"}, "HLA-DRB1*1101": {"target": "T1, HLA-DRB1*1101 (Homo sapiens, UniProt P01903+P01911, A100R/A169T/A87E/I96F/K41T/L162R/M171V/P40S/Q125H/Q178H/Q39Y/Q99D/R42S/S66Y/T262R/V115G/W38E)", "T1 construct": "purchased", "assay": "In vitro class II HLA binding competition assay", "conditions": "competition with fluorescent-labeled reference peptide, class II HLA monomers, 24-hours, test peptide 100,000 nM to 100 nM, time-resolved fluorescence", "description": "as §1"}, "HLA-DRB1*0101": {"target": "T2, HLA-DRB1*0101 (Homo sapiens, UniProt P01903+P01911, A100R/D57E/F55L/F60I/F76Y/I96L/L162R/M171V/P40L/Q125E/R42F/V115G/Y59C)", "T2 construct": "purchased", "assay": "In vitro class II HLA binding competition assay", "conditions": "competition with fluorescent-labeled reference peptide, class II HLA monomers, 24-hours, test peptide 100,000 nM to 100 nM, time-resolved fluorescence", "description": "as §1"}, "HLA-DRB1*0701": {"target": "HLA-DRB1*0701 (Homo sapiens, UniProt P01903+P01911, A100R/A102G/A103Q/D57E/D86V/E43K/F76Y/K127E/L162R/M171V/P40G/Q125H/Q99D/R33Q/R42Y/R54Q/S133A/S66F/T210M/V115G/Y107V/Y59L/Y89S)", "assay": "In vitro class II HLA binding competition assay", "conditions": "competition with fluorescent-labeled reference peptide, class II HLA monomers, 24-hours, test peptide 100,000 nM to 100 nM, time-resolved fluorescence; read-out: IC50, DRB1*0701", "description": "as §1"}, "HLA-DRB1*1501": {"target": "T3, HLA-DRB1*1501 (Homo sapiens, UniProt P01903+P01911)", "T3 construct": "purchased", "assay": "In vitro class II HLA binding competition assay", "conditions": "competition with fluorescent-labeled reference peptide, class II HLA monomers, 24-hours, test peptide 100,000 nM to 100 nM, time-resolved fluorescence; read-out: IC50, DRB1*1501", "description": "as §1"}, "HLA-DRB1*0401": {"target": "T4, HLA-DRB1*0401 (Homo sapiens, UniProt P01903+P01911, A100K/A169T/F76Y/I96L/K127E/L162R/M171V/N62H/P40V/Q125Y/R42H/S133A/S149N/S66Y/V115G/V209L/W38E)", "T4 construct": "purchased", "assay": "In vitro class II HLA binding competition assay", "conditions": "competition with fluorescent-labeled reference peptide, class II HLA monomers, 24-hours, test peptide 100,000 nM to 100 nM, time-resolved fluorescence; read-out: IC50, DRB1*0401", "description": "as §1"}}, "note": "Peptide text beside a SMILES is read from it.", "data": [{"smiles": "CC[C@H](C)[C@H](NC(=O)[C@H](CO)NC(=O)[C@H](CO)NC(=O)[C@H](CC(N)=O)NC(=O)[C@@H](NC(=O)[C@@H](NC(=O)[C@H](CC(N)=O)NC(=O)[C@H](Cc1ccccc1)NC(=O)[C@@H](NC(=O)[C@H](CO)NC(=O)[C@H](CO)NC(=O)[C@@H](N)CCCCN)C(C)C)C(C)C)C(C)C)C(=O)NCC(=O)N[C@@H](CC(C)C)C(=O)N[C@H](C(=O)N[C@@H](CCSC)C(=O)N[C@H](C(=O)N[C@@H](CC(C)C)C(=O)N[C@@H](CO)C(N)=O)C(C)C)[C@@H](C)CC", "note": "[Cluster C4] (H-KSSVFNVVNSSIGLIMVLS-NH2)", "values": [{"measurement": "Percentage of donors demonstrating IFN-γ responses, DR1", "setting": "[1]; DR1 donors N=5, ICCS after 14-day co-culture", "value": 20, "unit": "%"}, {"measurement": "Percentage of donors demonstrating IL-2 responses, DR1", "setting": "[1]; DR1 donors N=5, ICCS", "value": 0, "unit": "%"}, {"measurement": "Percentage of donors demonstrating IL-4 responses, DR1", "setting": "[1]; DR1 donors N=5, ICCS", "value": 0, "unit": "%"}, {"measurement": "Percentage of donors demonstrating IL-10 responses, DR1", "setting": "[1]; DR1 donors N=5, ICCS", "value": 20, "unit": "%"}, {"measurement": "Percentage of donors demonstrating TNF-α responses, DR1", "setting": "[1]; DR1 donors N=5, ICCS", "value": 0, "unit": "%"}, {"measurement": "Percentage of donors demonstrating IFN-γ responses, DR3", "setting": "[1]; DR3 donors N=6, ICCS after 14-day co-culture", "value": 17, "unit": "%"}, {"measurement": "Percentage of donors demonstrating IL-2 responses, DR3", "setting": "[1]; DR3 donors N=6, ICCS", "value": 0, "unit": "%"}, {"measurement": "Percentage of donors demonstrating IL-4 responses, DR3", "setting": "[1]; DR3 donors N=6, ICCS", "value": 0, "unit": "%"}, {"measurement": "Percentage of donors demonstrating IL-10 responses, DR3", "setting": "[1]; DR3 donors N=6, ICCS", "value": 0, "unit": "%"}, {"measurement": "Percentage of donors demonstrating TNF-α responses, DR3", "setting": "[1]; DR3 donors N=6, ICCS", "value": 0, "unit": "%"}, {"measurement": "Percentage of donors demonstrating IFN-γ responses, DR4", "setting": "[1]; DR4 donors N=10, ICCS after 14-day co-culture", "value": 30, "unit": "%"}, {"measurement": "Percentage of donors demonstrating IL-2 responses, DR4", "setting": "[1]; DR4 donors N=10, ICCS", "value": 0, "unit": "%"}, {"measurement": "Percentage of donors demonstrating IL-4 responses, DR4", "setting": "[1]; DR4 donors N=10, ICCS", "value": 40, "unit": "%"}, {"measurement": "Percentage of donors demonstrating IL-10 responses, DR4", "setting": "[1]; DR4 donors N=10, ICCS", "value": 20, "unit": "%"}, {"measurement": "Percentage of donors demonstrating TNF-α responses, DR4", "setting": "[1]; DR4 donors N=10, ICCS", "value": 10, "unit": "%"}, {"measurement": "Percentage of donors demonstrating IFN-γ responses, DR7", "setting": "[1]; DR7 donors N=4, ICCS after 14-day co-culture", "value": 0, "unit": "%"}, {"measurement": "Percentage of donors demonstrating IL-2 responses, DR7", "setting": "[1]; DR7 donors N=4, ICCS", "value": 0, "unit": "%"}, {"measurement": "Percentage of donors demonstrating IL-4 responses, DR7", "setting": "[1]; DR7 donors N=4, ICCS", "value": 25, "unit": "%"}, {"measurement": "Percentage of donors demonstrating IL-10 responses, DR7", "setting": "[1]; DR7 donors N=4, ICCS", "value": 0, "unit": "%"}, {"measurement": "Percentage of donors demonstrating TNF-α responses, DR7", "setting": "[1]; DR7 donors N=4, ICCS", "value": 0, "unit": "%"}, {"measurement": "Percentage of donors demonstrating IFN-γ responses, DR8", "setting": "[1]; DR8 donors N=4, ICCS after 14-day co-culture", "value": 25, "unit": "%"}, {"measurement": "Percentage of donors demonstrating IL-2 responses, DR8", "setting": "[1]; DR8 donors N=4, ICCS", "value": 25, "unit": "%"}, {"measurement": "Percentage of donors demonstrating IL-4 responses, DR8", "setting": "[1]; DR8 donors N=4, ICCS", "value": 25, "unit": "%"}, {"measurement": "Percentage of donors demonstrating IL-10 responses, DR8", "setting": "[1]; DR8 donors N=4, ICCS", "value": 25, "unit": "%"}, {"measurement": "Percentage of donors demonstrating TNF-α responses, DR8", "setting": "[1]; DR8 donors N=4, ICCS", "value": 25, "unit": "%"}, {"measurement": "Percentage of donors demonstrating IFN-γ responses, DR9", "setting": "[1]; DR9 donors N=4, ICCS after 14-day co-culture", "value": 0, "unit": "%"}, {"measurement": "Percentage of donors demonstrating IL-2 responses, DR9", "setting": "[1]; DR9 donors N=4, ICCS", "value": 25, "unit": "%"}, {"measurement": "Percentage of donors demonstrating IL-4 responses, DR9", "setting": "[1]; DR9 donors N=4, ICCS", "value": 25, "unit": "%"}, {"measurement": "Percentage of donors demonstrating IL-10 responses, DR9", "setting": "[1]; DR9 donors N=4, ICCS", "value": 0, "unit": "%"}, {"measurement": "Percentage of donors demonstrating TNF-α responses, DR9", "setting": "[1]; DR9 donors N=4, ICCS", "value": 25, "unit": "%"}, {"measurement": "Percentage of donors demonstrating IFN-γ responses, DR11", "setting": "[1]; DR11 donors N=4, ICCS after 14-day co-culture", "value": 50, "unit": "%"}, {"measurement": "Percentage of donors demonstrating IL-2 responses, DR11", "setting": "[1]; DR11 donors N=4, ICCS", "value": 25, "unit": "%"}, {"measurement": "Percentage of donors demonstrating IL-4 responses, DR11", "setting": "[1]; DR11 donors N=4, ICCS", "value": 0, "unit": "%"}, {"measurement": "Percentage of donors demonstrating IL-10 responses, DR11", "setting": "[1]; DR11 donors N=4, ICCS", "value": 0, "unit": "%"}, {"measurement": "Percentage of donors demonstrating TNF-α responses, DR11", "setting": "[1]; DR11 donors N=4, ICCS", "value": 25, "unit": "%"}, {"measurement": "Percentage of donors demonstrating IFN-γ responses, DR13", "setting": "[1]; DR13 donors N=7, ICCS after 14-day co-culture", "value": 29, "unit": "%"}, {"measurement": "Percentage of donors demonstrating IL-2 responses, DR13", "setting": "[1]; DR13 donors N=7, ICCS", "value": 43, "unit": "%"}, {"measurement": "Percentage of donors demonstrating IL-4 responses, DR13", "setting": "[1]; DR13 donors N=7, ICCS", "value": 14, "unit": "%"}, {"measurement": "Percentage of donors demonstrating IL-10 responses, DR13", "setting": "[1]; DR13 donors N=7, ICCS", "value": 0, "unit": "%"}, {"measurement": "Percentage of donors demonstrating TNF-α responses, DR13", "setting": "[1]; DR13 donors N=7, ICCS", "value": 43, "unit": "%"}, {"measurement": "Percentage of donors demonstrating IFN-γ responses, DR15", "setting": "[1]; DR15 donors N=7, ICCS after 14-day co-culture", "value": 0, "unit": "%"}, {"measurement": "Percentage of donors demonstrating IL-2 responses, DR15", "setting": "[1]; DR15 donors N=7, ICCS", "value": 0, "unit": "%"}, {"measurement": "Percentage of donors demonstrating IL-4 responses, DR15", "setting": "[1]; DR15 donors N=7, ICCS", "value": 29, "unit": "%"}, {"measurement": "Percentage of donors demonstrating IL-10 responses, DR15", "setting": "[1]; DR15 donors N=7, ICCS", "value": 0, "unit": "%"}, {"measurement": "Percentage of donors demonstrating TNF-α responses, DR15", "setting": "[1]; DR15 donors N=7, ICCS", "value": 14, "unit": "%"}, {"measurement": "IC50", "setting": "HLA-DRB1*0301", "value": 1100, "unit": "nM"}, {"measurement": "IC50", "setting": "HLA-DRB1*1301", "value": 1200, "unit": "nM"}, {"measurement": "IC50", "setting": "HLA-DRB1*1101", "value": 1040, "unit": "nM"}, {"measurement": "IC50", "setting": "HLA-DRB1*0101", "value": 526, "unit": "nM"}, {"measurement": "IC50", "setting": "HLA-DRB1*0701", "value": 2070, "unit": "nM"}, {"measurement": "IC50", "setting": "HLA-DRB1*1501", "value": 12300, "unit": "nM"}, {"measurement": "IC50", "setting": "HLA-DRB1*0401", "value": 1690, "unit": "nM"}]}]}
